Results taken from article PMC8032764 (Scientific Reports, 2021).
Read-outs that look alike come from different tables or passages of the source.

Key:
Kv channel = assay: Cerep binding; details: 10 μM; [125I]α−dendrotoxin; rat cerebral cortex
Dopamine D2S = tested on: T1, Dopamine D2S; assay: Cerep binding; parameters: species or system human; details: 10 μM; [3H]spiperone; hum. recomb. (HEK-293)
T1 construct: host or cells: HEK-293

Opioid δ2 = tested on: T2, Opioid δ2; assay: Cerep binding; parameters: species or system human; details: 10 μM; [3H]DADLE; hum. recomb. (CHO)
T2 construct: host or cells: CHO

male F-344 rats = assay: Social approach avoidance test
Procedure: Experiments on social approach avoidance were performed as described previously by[41] and[14]. A tracking system (Ethovision, Noldus, The Netherlands) was used to analyse each rat’s pathway.

Dopamine D3 = tested on: T3, Dopamine D3; assay: Cerep binding; parameters: species or system human; details: 10 μM; [3H]spiperone; hum. recomb. (CHO)
T3 construct: host or cells: CHO

[1] = Pharmacokinetics, single oral dosing, SAD study BP25129; type: in vivo, Human; details: for bioavailability / Tmax / AUC(0-t) / Cmax: human, plasma, tablet, n = 6 male; for Tmax: median, read-out: Tmax (range); for AUC(0-t) / Cmax: ± percent coefficient of variation

Cc1onc(-c2ccc(F)cc2)c1COc1ccc(C(=O)N2CCS(=O)(=O)CC2)cn1 [basmisanil]
% Inhibition (Kv channel): -1% | % Inhibition (Dopamine D2S): 9% | % Inhibition (Opioid δ2): 8% | time spent in the social compartment (male F-344 rats; 3–100 mg/kg p.o., 1 h prior to testing): did not significantly reduce the time spent in the social compartment | anxiogenic-like effect (time in social compartment and in hidden area) (male F-344 rats; up to 100 mg/kg p.o.): did not have an anxiogenic-like effect | % Inhibition (Dopamine D3): 3% | bioavailability ([1]; 45 mg oral): ~75% | Tmax ([1]; 45 mg oral): 3.5 h | AUC(0-t) ([1]; 45 mg oral): 6040 ± 38.7 ng·h/mL | Cmax ([1]; 45 mg oral): 767 ± 15.4 ng/mL | bioavailability ([1]; 160 mg oral): ~75% | Tmax ([1]; 160 mg oral): 4 h | AUC(0-t) ([1]; 160 mg oral): 20300 ng·h/mL | Cmax ([1]; 160 mg oral): 1860 ± 14.3 ng/mL | bioavailability ([1]; 330 mg oral): ~75% | Tmax ([1]; 330 mg oral): 4 h | AUC(0-t) ([1]; 330 mg oral): 30500 ng·h/mL | Cmax ([1]; 330 mg oral): 2120 ± 24 ng/mL | maximum plasma concentration ([1]; single dose 160 mg): 1860 ng/mL | maximum plasma concentration ([1]; single dose 660 mg): 3710 ng/mL | maximum plasma concentration ([1]; single dose 1250 mg): 4890 ng/mL
